The values that follow come from ChEMBL document CHEMBL1144362, “Synthesis and biological evaluation of novel 1,4-naphthoquinone derivatives as antibacterial and antiviral agents” (2005).

One experiment relates to Klebsiella pneumoniae. The experiment in a line: Minimum inhibitory concentration gainst Klebsiella pneumoniae by broth microdilution technique. The format is functional. A general note: Dilution methods test growth across graded concentrations, often in twofold steps.
A further experiment relates to Pseudomonas aeruginosa. Put plainly: Minimum inhibitory concentration gainst Pseudomonas aeruginosa by broth microdilution technique. The format is functional.
A further experiment concerns Staphylococcus aureus. Put plainly: Minimum inhibitory concentration gainst Staphylococcus aureus by broth microdilution technique. It is filed as functional.
The test system of a further experiment is Enterococcus faecalis. The experiment in a line: Minimum inhibitory concentration gainst Streptococcus faecalis by broth microdilution technique. The format is functional.
In another experiment the test system is Escherichia coli. The experiment in a line: Minimum inhibitory concentration gainst Escherichia coli by broth microdilution technique. The format is functional.
Experiment [1] can be described thus: Antiviral activity against poliovirus type 2 infected HeLa cells; control=55. It is filed as functional, Poliovirus type2.
Experiment [2] in a line: Antiviral activity against poliovirus type 2 infected HeLa cells. It is filed as functional, Poliovirus type2.

Values after ≈ are worked out from the molar mass of the structure shown.

For `CC(SC1=CC(=O)c2ccccc2C1=O)C(=O)O` (stereo not given), the MIC with Klebsiella pneumoniae was 50 mg/L (≈ 191 µM); with Pseudomonas aeruginosa, over 50 mg/L; against Staphylococcus aureus it was 25 mg/L (≈ 95.3 µM); against Enterococcus faecalis it was 50 mg/L (≈ 191 µM); against Escherichia coli, 50 mg/L (≈ 191 µM).
Turning to `Oc1ccc(O)c2c1SCCS2`, the MIC in the experiment with Klebsiella pneumoniae, with Pseudomonas aeruginosa, against Staphylococcus aureus, in the experiment with Enterococcus faecalis and in the experiment with Escherichia coli was over 50 mg/L each time.
Consider `CC(SC1=C(O)C(=O)c2ccccc2C1=O)C(=O)O` (stereo not given), for which the MIC against Klebsiella pneumoniae was 50 mg/L (≈ 180 µM); against Pseudomonas aeruginosa, over 50 mg/L; in the experiment on Staphylococcus aureus, 50 mg/L (≈ 180 µM); with Enterococcus faecalis, 50 mg/L (≈ 180 µM); against Escherichia coli it was 50 mg/L (≈ 180 µM).
For `CC1=C(SC(C)C(=O)O)C(=O)c2ccccc2C1=O` (stereo not given), the minimum inhibitory concentration (MIC) with Klebsiella pneumoniae is over 50 mg/L; against Pseudomonas aeruginosa, over 50 mg/L; with Staphylococcus aureus, 25 mg/L (≈ 90.5 µM); in the experiment on Enterococcus faecalis, 50 mg/L (≈ 181 µM); with Escherichia coli, 50 mg/L (≈ 181 µM).
`COc1ccc(NC(=O)C(C)SC2=CC(=O)c3ccccc3C2=O)cc1` (stereo not given): the minimum inhibitory concentration (MIC) against Klebsiella pneumoniae is over 50 mg/L; with Pseudomonas aeruginosa it was over 50 mg/L; against Staphylococcus aureus, 25 mg/L (≈ 68 µM); with Enterococcus faecalis, over 50 mg/L; in the experiment with Escherichia coli it was 50 mg/L (≈ 136 µM).
For `COc1ccccc1NC(=O)C(C)SC1=CC(=O)c2ccccc2C1=O` (stereo not given), the minimum inhibitory concentration (MIC) was 12.5 mg/L (≈ 34 µM) in the experiment with Klebsiella pneumoniae; over 50 mg/L in the experiment on Pseudomonas aeruginosa; over 50 mg/L against Staphylococcus aureus; over 50 mg/L in the experiment with Enterococcus faecalis; over 50 mg/L against Escherichia coli.
Consider `O=C(CSC1=CC(=O)c2ccccc2C1=O)Nc1ccc([N+](=O)[O-])cc1`, for which the MIC in the experiment on Klebsiella pneumoniae was over 50 mg/L; with Pseudomonas aeruginosa, over 50 mg/L; against Staphylococcus aureus, 25 mg/L (≈ 67.9 µM); against Enterococcus faecalis, 12.5 mg/L (≈ 33.9 µM); in the experiment on Escherichia coli, 6.25 mg/L (≈ 17 µM).
Turning to `O=C(CSC1=CC(=O)c2ccccc2C1=O)Nc1cccc2ccccc12`, the minimum inhibitory concentration (MIC) with Klebsiella pneumoniae is 25 mg/L (≈ 66.9 µM); against Pseudomonas aeruginosa, over 50 mg/L; in the experiment with Staphylococcus aureus, over 50 mg/L; with Enterococcus faecalis it was 12.5 mg/L (≈ 33.5 µM); in the experiment with Escherichia coli, 12.5 mg/L (≈ 33.5 µM).
Consider `CC(SC1=CC(=O)c2c(O)ccc(O)c2C1=O)C(=O)O` (stereo not given), for which the minimal inhibitory concentration (MIC) in the experiment with Klebsiella pneumoniae was 50 mg/L (≈ 170 µM); in the experiment on Pseudomonas aeruginosa it was over 50 mg/L; with Staphylococcus aureus, over 50 mg/L; against Enterococcus faecalis, 25 mg/L (≈ 85 µM); against Escherichia coli, 50 mg/L (≈ 170 µM).
Consider `O=C(O)CSC1=CC(=O)c2c(O)ccc(O)c2C1=O`, for which the MIC in the experiment on Klebsiella pneumoniae, in the experiment with Pseudomonas aeruginosa, against Staphylococcus aureus, in the experiment on Enterococcus faecalis and against Escherichia coli was over 50 mg/L each time.
`Cc1ccccc1NC(=O)CSC1=CC(=O)c2ccccc2C1=O`: the MIC against Klebsiella pneumoniae was over 50 mg/L; against Pseudomonas aeruginosa, over 50 mg/L; with Staphylococcus aureus, 12.5 mg/L (≈ 37 µM); in the experiment with Enterococcus faecalis, 50 mg/L (≈ 148 µM); with Escherichia coli, 50 mg/L (≈ 148 µM).
In the case of `O=C(CSC1=CC(=O)c2ccccc2C1=O)Nc1ccccc1`, the minimal inhibitory concentration (MIC) is 50 mg/L (≈ 155 µM) with Klebsiella pneumoniae; over 50 mg/L with Pseudomonas aeruginosa; 12.5 mg/L (≈ 38.7 µM) with Staphylococcus aureus; 50 mg/L (≈ 155 µM) against Enterococcus faecalis; 50 mg/L (≈ 155 µM) with Escherichia coli.
Molecule `O=C1C=CC(=O)c2c(Cl)ccc(O)c21` registered a DPM in experiment [1] of 375.
GENTAMICIN: the MIC in the experiment on Klebsiella pneumoniae turned out to be 0.39 mg/L; with Pseudomonas aeruginosa, 0.78 mg/L; in the experiment with Staphylococcus aureus, 0.78 mg/L.
Regarding `Cc1cccc(NC(=O)C(C)SC2=CC(=O)c3ccccc3C2=O)c1` (stereo not given), the MIC against Klebsiella pneumoniae, against Pseudomonas aeruginosa, in the experiment on Staphylococcus aureus, in the experiment on Enterococcus faecalis and in the experiment with Escherichia coli was over 50 mg/L throughout.
In the case of `Cc1ccc(NC(=O)C(C)SC2=CC(=O)c3ccccc3C2=O)cc1` (stereo not given), the MIC with Klebsiella pneumoniae, with Pseudomonas aeruginosa, against Staphylococcus aureus, in the experiment on Enterococcus faecalis and against Escherichia coli was over 50 mg/L in each case.
Take `O=C1C=CC(=O)c2c(O)c3c(c(O)c21)SCCS3`: the MIC against Klebsiella pneumoniae, with Pseudomonas aeruginosa, against Staphylococcus aureus, against Enterococcus faecalis and in the experiment on Escherichia coli was over 50 mg/L in each case.
Turning to `COc1ccc(NC(=O)CSC2=CC(=O)c3ccccc3C2=O)cc1`, the MIC against Klebsiella pneumoniae worked out at 6.25 mg/L (≈ 17.7 µM); in the experiment with Pseudomonas aeruginosa, 50 mg/L (≈ 141 µM); with Staphylococcus aureus it was 25 mg/L (≈ 70.7 µM); in the experiment on Enterococcus faecalis it was 6.25 mg/L (≈ 17.7 µM); against Escherichia coli it was 12.5 mg/L (≈ 35.4 µM).
With `CC(SC1=CC(=O)c2ccccc2C1=O)C(=O)Nc1cccc2ccccc12` (stereo not given), the MIC was over 50 mg/L against Klebsiella pneumoniae; 50 mg/L (≈ 129 µM) against Pseudomonas aeruginosa; over 50 mg/L in the experiment with Staphylococcus aureus; over 50 mg/L against Enterococcus faecalis; over 50 mg/L against Escherichia coli.
`CC(SC1=CC(=O)c2ccccc2C1=O)C(=O)Nc1ccc([N+](=O)[O-])cc1` (stereo not given): the MIC against Klebsiella pneumoniae was over 50 mg/L; in the experiment with Pseudomonas aeruginosa, over 50 mg/L; in the experiment with Staphylococcus aureus it was 25 mg/L (≈ 65.4 µM); with Enterococcus faecalis, 50 mg/L (≈ 131 µM); against Escherichia coli, 50 mg/L (≈ 131 µM).
In experiment [2], `O=C(O)CSC1=CC(=O)c2ccccc2C1=O` registered a DPM of 675.
Turning to `CC(SC1=CC(=O)c2ccccc2C1=O)C(=O)Nc1ccccc1` (stereo not given), the MIC in the experiment with Klebsiella pneumoniae was over 50 mg/L; against Pseudomonas aeruginosa, over 50 mg/L; in the experiment with Staphylococcus aureus it was 25 mg/L (≈ 74.1 µM); against Enterococcus faecalis, 12.5 mg/L (≈ 37 µM); in the experiment with Escherichia coli, 6.25 mg/L (≈ 18.5 µM).
`O=C1C2=C(SCCS2)C(=O)c2ccccc21`: the minimum inhibitory concentration (MIC) with Klebsiella pneumoniae was over 50 mg/L; against Pseudomonas aeruginosa it was 50 mg/L (≈ 201 µM); in the experiment on Staphylococcus aureus, over 50 mg/L; against Enterococcus faecalis, over 50 mg/L; against Escherichia coli, over 50 mg/L.
For `COc1ccccc1NC(=O)CSC1=CC(=O)c2ccccc2C1=O`, the MIC is 25 mg/L (≈ 70.7 µM) with Klebsiella pneumoniae; over 50 mg/L in the experiment with Pseudomonas aeruginosa; over 50 mg/L in the experiment on Staphylococcus aureus; over 12.5 mg/L in the experiment with Enterococcus faecalis; 6.25 mg/L (≈ 17.7 µM) against Escherichia coli.
As to `Cc1ccccc1NC(=O)C(C)SC1=CC(=O)c2ccccc2C1=O` (stereo not given), the MIC against Klebsiella pneumoniae, against Pseudomonas aeruginosa, in the experiment on Staphylococcus aureus, against Enterococcus faecalis and against Escherichia coli was over 50 mg/L each time.
For the molecule `O=C1CSc2c3c(c4ccccc4c2O1)OC(=O)CS3`, the MIC against Klebsiella pneumoniae is 25 mg/L (≈ 82.1 µM); against Pseudomonas aeruginosa, over 50 mg/L; with Staphylococcus aureus, over 50 mg/L; in the experiment on Enterococcus faecalis, over 50 mg/L; against Escherichia coli, over 50 mg/L.

For orientation: MIC means the least concentration at which growth counts as inhibited. A higher MIC goes with a less susceptible organism.
